Data set [1] can be described thus: Permeability of the compound by PAMPA assay. The format is ADME. To be noted: read-out: permeability.
The target of a further data set is T1, Glucocorticoid receptor (Homo sapiens, UniProt P04150).
T1 sequence (P04150 whole entry): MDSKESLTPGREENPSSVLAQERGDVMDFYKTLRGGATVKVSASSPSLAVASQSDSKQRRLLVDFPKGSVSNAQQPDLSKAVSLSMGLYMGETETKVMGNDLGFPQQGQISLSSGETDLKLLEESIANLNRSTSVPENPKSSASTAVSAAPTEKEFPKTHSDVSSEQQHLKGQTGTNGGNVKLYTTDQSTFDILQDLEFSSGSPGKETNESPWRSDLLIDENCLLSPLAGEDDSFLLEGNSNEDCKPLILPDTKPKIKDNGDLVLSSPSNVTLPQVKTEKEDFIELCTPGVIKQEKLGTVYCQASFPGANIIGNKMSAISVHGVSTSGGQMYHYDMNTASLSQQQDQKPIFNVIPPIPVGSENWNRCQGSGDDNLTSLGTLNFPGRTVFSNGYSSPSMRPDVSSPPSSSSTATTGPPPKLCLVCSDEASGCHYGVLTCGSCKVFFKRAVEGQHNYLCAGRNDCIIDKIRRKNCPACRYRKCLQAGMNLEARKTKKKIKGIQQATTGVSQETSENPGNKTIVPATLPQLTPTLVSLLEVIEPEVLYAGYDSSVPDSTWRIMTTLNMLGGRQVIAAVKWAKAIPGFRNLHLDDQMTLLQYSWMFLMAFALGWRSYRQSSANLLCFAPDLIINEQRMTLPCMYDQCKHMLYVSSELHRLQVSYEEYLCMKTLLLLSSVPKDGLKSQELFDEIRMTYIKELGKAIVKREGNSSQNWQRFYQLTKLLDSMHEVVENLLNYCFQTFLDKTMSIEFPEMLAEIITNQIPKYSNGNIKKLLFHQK
Briefly: Inhibition of glucocorticoid receptor (unknown origin).

The target of the next data set is T2, Cytochrome P450 1A2 (Homo sapiens, UniProt P05177).
T2 sequence (P05177 whole entry): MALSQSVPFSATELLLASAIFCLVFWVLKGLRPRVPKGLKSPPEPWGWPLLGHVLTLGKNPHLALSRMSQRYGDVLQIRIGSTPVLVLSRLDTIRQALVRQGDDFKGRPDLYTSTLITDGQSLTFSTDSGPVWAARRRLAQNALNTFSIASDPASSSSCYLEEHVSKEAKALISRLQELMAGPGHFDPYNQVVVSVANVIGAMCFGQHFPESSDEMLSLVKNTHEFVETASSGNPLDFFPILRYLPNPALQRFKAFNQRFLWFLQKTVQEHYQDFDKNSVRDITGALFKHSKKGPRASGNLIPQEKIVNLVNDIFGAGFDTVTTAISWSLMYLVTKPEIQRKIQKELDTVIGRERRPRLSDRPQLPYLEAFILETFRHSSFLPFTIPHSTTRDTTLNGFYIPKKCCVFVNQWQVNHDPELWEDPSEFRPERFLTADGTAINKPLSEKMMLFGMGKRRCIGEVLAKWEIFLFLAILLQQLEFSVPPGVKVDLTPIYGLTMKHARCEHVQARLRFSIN
The experiment in a line: Inhibition of CYP1A2 (unknown origin). The format is ADME.

Data set [2] in a line: AUC in Sprague-Dawley rat at 0.5 mg/kg, iv. The format is ADME, organism-based. On the set-up: dose 0.5 mg/kg, route iv. To be noted: in vivo.
Data set [3] is described as follows: Cmax in CD1 mouse at 10 mg/kg, po. Details: dose 10 mg/kg, route po. To be noted: in vivo. The format is ADME, organism-based.
Data set [4] is described as follows: Oral bioavailability in CD1 mouse at 10 mg/kg. The format is ADME, organism-based. Conditions: in vivo.
Data set [5] is described as follows: Volume of distribution at steady state in Sprague-Dawley rat at 0.5 mg/kg, iv. The format is ADME, organism-based. To be noted: in vivo, read-out: Vdss.
A short description of data set [6]: AUC (0 to infinity) in CD1 mouse at 10 mg/kg, po. The format is ADME, organism-based. On the set-up: dose 10 mg/kg, route po. To be noted: in vivo.
Another data set deals with Cytochrome P450 3A4 (Homo sapiens, UniProt P08684). The experiment in a line: Inhibition of CYP3A4 (unknown origin). Type of data set: ADME.
Data set [7] can be described thus: AUC in CD1 mouse at 3 mg/kg, iv. Type of data set: ADME, organism-based. On the set-up: dose 3 mg/kg, route iv. To be noted: in vivo.
A short description of data set [8]: Plasma clearance in Sprague-Dawley rat at 0.5 mg/kg, iv. To be noted: in vivo. Type of data set: ADME, organism-based.
The nature of data set [9]: Plasma clearance in CD1 mouse at 3 mg/kg, iv. Conditions: in vivo. Type of data set: ADME, organism-based.
Data set [10] can be described thus: Half life in CD1 mouse at 3 mg/kg, iv. The format is ADME, organism-based. Conditions: in vivo.
Data set [11] can be described thus: Plasma protein binding in mouse assessed as unbound fraction. The format is ADME, cell-free.
In the next data set the target is Cytochrome P450 2C9 (Homo sapiens, UniProt P11712). The experiment in a line: Inhibition of CYP2C9 (unknown origin). The format is ADME.
The nature of data set [12]: Half life in CD1 mouse at 10 mg/kg, po. The format is ADME, organism-based. To be noted: in vivo.
A short description of data set [13]: Tmax in CD1 mouse at 10 mg/kg, po. Type of data set: ADME, organism-based. To be noted: in vivo.
Data set [14] can be described thus: Oral bioavailability in Sprague-Dawley rat at 3 mg/kg. The format is ADME, organism-based. Conditions: in vivo.
Data set [15] is described as follows: Half life in Sprague-Dawley rat at 0.5 mg/kg, iv. Type of data set: ADME, organism-based. Conditions: in vivo.
A short description of data set [16]: AUC (0 to infinity) in Sprague-Dawley rat at 3 mg/kg, po. Type of data set: ADME, organism-based. On the set-up: dose 3 mg/kg, route po. Conditions: in vivo.
The nature of data set [17]: Cmax in Sprague-Dawley rat at 3 mg/kg, po. Type of data set: ADME, organism-based. Conditions: in vivo. On the set-up: dose 3 mg/kg, route po.
The nature of data set [18]: Tmax in Sprague-Dawley rat at 3 mg/kg, po. Type of data set: ADME, organism-based. To be noted: in vivo.
The target of the next data set is Cytochrome P450 2D6 (Homo sapiens, UniProt P10635). The experiment in a line: Inhibition of CYP2D6 (unknown origin). Type of data set: ADME.
Data set [19] can be described thus: Permeability of compound at pH 7.4 by PAMPA assay. The format is ADME. To be noted: read-out: permeability.
A short description of data set [20]: Half life in Sprague-Dawley rat at 3 mg/kg, po. Conditions: in vivo. Type of data set: ADME, organism-based.
Data set [21] in a line: Volume of distribution at steady state in CD1 mouse at 3 mg/kg, iv. The format is ADME, organism-based. To be noted: in vivo, read-out: Vdss.
A short description of data set [22]: Solubility of compound at pH 7.4. Type of data set: physicochemical. Conditions: buffer.

Converted amounts (≈) assume the structure as drawn.

Chain of Cytochrome P450 2D6 (P10635 whole entry): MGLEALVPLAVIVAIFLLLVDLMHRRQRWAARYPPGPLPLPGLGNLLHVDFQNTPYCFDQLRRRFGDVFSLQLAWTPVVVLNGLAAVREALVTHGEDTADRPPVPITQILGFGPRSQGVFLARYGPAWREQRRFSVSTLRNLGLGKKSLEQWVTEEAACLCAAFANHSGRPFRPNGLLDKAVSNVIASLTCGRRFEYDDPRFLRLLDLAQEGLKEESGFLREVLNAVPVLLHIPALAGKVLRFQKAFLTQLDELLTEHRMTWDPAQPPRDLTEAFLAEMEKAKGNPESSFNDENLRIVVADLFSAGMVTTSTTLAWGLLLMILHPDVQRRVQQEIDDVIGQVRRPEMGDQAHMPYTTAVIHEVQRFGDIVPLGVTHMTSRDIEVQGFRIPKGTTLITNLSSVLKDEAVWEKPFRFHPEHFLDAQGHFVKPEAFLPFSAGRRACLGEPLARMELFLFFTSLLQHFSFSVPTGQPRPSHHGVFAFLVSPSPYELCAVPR
Chain of Cytochrome P450 3A4 (P08684 whole entry): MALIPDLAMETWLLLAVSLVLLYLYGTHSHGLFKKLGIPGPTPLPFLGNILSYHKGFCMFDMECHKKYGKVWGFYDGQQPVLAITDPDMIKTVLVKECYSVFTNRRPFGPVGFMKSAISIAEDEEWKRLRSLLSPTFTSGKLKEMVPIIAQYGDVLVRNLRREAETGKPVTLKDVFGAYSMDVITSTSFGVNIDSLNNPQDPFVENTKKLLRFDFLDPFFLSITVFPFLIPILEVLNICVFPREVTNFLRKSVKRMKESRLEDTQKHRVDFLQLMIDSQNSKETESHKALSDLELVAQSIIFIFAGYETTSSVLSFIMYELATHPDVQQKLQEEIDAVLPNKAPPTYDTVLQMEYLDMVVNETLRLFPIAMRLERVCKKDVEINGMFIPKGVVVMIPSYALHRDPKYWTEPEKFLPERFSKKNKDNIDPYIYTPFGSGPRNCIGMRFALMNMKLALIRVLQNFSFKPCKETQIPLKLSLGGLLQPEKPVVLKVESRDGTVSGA
Chain of Cytochrome P450 2C9 (P11712 whole entry): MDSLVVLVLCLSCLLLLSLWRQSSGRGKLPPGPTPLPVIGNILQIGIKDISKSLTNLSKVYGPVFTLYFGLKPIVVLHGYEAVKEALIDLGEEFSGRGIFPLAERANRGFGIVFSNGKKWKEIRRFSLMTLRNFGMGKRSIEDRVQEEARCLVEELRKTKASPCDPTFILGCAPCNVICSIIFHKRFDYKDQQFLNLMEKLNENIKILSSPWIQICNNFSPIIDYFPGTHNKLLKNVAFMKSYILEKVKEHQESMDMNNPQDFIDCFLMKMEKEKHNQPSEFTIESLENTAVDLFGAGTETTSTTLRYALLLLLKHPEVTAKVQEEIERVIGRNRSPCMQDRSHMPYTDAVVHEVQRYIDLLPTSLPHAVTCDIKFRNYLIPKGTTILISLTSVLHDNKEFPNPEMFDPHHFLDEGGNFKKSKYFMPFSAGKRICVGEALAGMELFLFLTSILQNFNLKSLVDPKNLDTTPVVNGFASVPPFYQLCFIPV

As to `C[C@]12C=CC(=O)C=C1[C@@H](F)C[C@H]1[C@@H]3C[C@H]4O[C@@H](c5ccc(CN6CCNCC6)cc5)O[C@@]4(C(=O)CO)[C@@]3(C)C[C@H](O)[C@@]12F`, in data set [1], the Papp stood at 0.22 ×10⁻⁶ cm/s.
A word on the IC50: it is the concentration that inhibits the measured activity by half. A low value points to higher potency. On to `C[C@]12C=CC(=O)C=C1CC[C@@H]1[C@@H]2[C@@H](O)C[C@@]2(C)[C@H]1C[C@H]1O[C@@H](C3CCCCC3)O[C@]12C(=O)CO` [DESISOBUTYRYLCICLESONIDE], for which the half-inhibitory concentration (IC50) on Glucocorticoid receptor was 0.002 µM.
The term Cmax denotes the maximum level reached in the sampled fluid or tissue. As usually defined, the bioavailability is dose-corrected exposure relative to a reference, in per cent. A low value points to poor availability. As a reminder, the clearance is the rate of elimination divided by the concentration. A high value points to efficient removal. What is called half-life is the time in which the quantity being followed falls by half. Read a high half-life as slow loss. The term Tmax denotes the time at which the peak concentration occurs. As usually defined, the AUC(0-inf) is total exposure, with the tail of the curve extrapolated. Higher therefore signals more exposure. As usually defined, the solubility is how much of the substance goes into solution per volume. A high value points to a readily soluble substance. `C[C@]12C=CC(=O)C=C1CC[C@@H]1[C@@H]2[C@@H](O)C[C@@]2(C)[C@H]1C[C@H]1O[C@@H](c3ccc(Cc4cccc(N)c4)cc3)O[C@]12C(=O)CO`: the IC50 was above 40 µM against Cytochrome P450 1A2, below 0.02 µM against Cytochrome P450 3A4, 18.4 µM against Cytochrome P450 2C9 and above 40 µM against Cytochrome P450 2D6. For the same molecule, the AUC worked out at 220 ng·h/mL in data set [2], 0.21 µg/h/mL in [6] and 3580 ng·h/mL in data set [7]. Moreover, the maximum concentration (Cmax) in data set [3] stood at 40 ng/mL; in data set [17], 80 ng/mL. The figures for the bioavailability in data set [4] and in [14] were 1% and 16.8%, respectively. Moreover, the figures for the Vd in data set [5] and in data set [21] were 2.55 L/kg and 2.91 L/kg, respectively. Besides, the clearance in [8] amounted to 37.8 mL/min/kg; in data set [9] it was 14.2 mL/min/kg. Also, the half-life in [10] was 3.82 h; in data set [12], 3.56 h; in data set [15] it was 1.2 h; in [20], 2.86 h. The Fu in [11] is on record as 0.01%. Moreover, the Tmax in data set [13] is 1.42 h; in data set [18] it was 0.25 h. The AUC(0-inf) in data set [16] stood at 220 ng·h/mL. In addition, in data set [19], the Papp was determined as 0.2 ×10⁻⁶ cm/s. Further, the concentration in solution in data set [22] (solubility) came to 1.33 µM (≈ 0.758 µg/mL).
Regarding `C[C@]12C=CC(=O)C=C1CC[C@@H]1[C@@H]2[C@@H](O)C[C@@]2(C)[C@H]1C[C@H]1O[C@@H](c3ccc(CN4CCNCC4)cc3)O[C@]12C(=O)CO`, the Papp in [1] was 0.23 ×10⁻⁶ cm/s.

Values taken from ChEMBL document CHEMBL5335838, “The medicinal chemistry evolution of antibody-drug conjugates” (RSC Med Chem, 2024).
